The source of these data is patent US20140249135A1, “PIM KINASE INHIBITORS AND METHODS OF THEIR USE” (NOVARTIS AG, priority 2007, published 2014).

Assay [1] has as its target Pim1 kinase (Homo sapiens, UniProt P11309). As to the kind of experiment: Pim1 ATP depletion assay.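 Note: Luciferase-luciferin luminescence readout of residual ATP after PIM1 transfers phosphate to a peptide substrate, 40 µM ATP added, reaction run to roughly half ATP consumption.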 The assay is classed as biochemical. To be noted: Pim1 ATP depletion assay; read-out: IC50 (μM) PIM1.
In assay [2] the target is Pim2 kinase (Homo sapiens, UniProt Q9P1W9). Kind of assay: Pim2 ATP depletion assay.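 Note: Luciferase-based luminescent readout of ATP remaining after PIM2 phosphorylates a BAD peptide, final 5 nM enzyme, 4 µM ATP, 10 µM peptide, 2.5% DMSO, run to roughly half ATP consumption.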 Format: biochemical. To be noted: read-out: IC50 (μM) PIM2.
Assay [3] addresses Pim3 kinase (Homo sapiens, UniProt Q86V86). As to the kind of experiment: Pim3 ATP depletion assay. To be noted: read-out: IC50 (μM) PIM3. Format: biochemical.
Assay [4] has as its target T1, human full length PKCE enzyme (Homo sapiens, UniProt Q02156).
T1 construct: human full length PKCE enzyme purchased from InVitrogen; purchased InVitrogen
T1 sequence (Q02156 1-737): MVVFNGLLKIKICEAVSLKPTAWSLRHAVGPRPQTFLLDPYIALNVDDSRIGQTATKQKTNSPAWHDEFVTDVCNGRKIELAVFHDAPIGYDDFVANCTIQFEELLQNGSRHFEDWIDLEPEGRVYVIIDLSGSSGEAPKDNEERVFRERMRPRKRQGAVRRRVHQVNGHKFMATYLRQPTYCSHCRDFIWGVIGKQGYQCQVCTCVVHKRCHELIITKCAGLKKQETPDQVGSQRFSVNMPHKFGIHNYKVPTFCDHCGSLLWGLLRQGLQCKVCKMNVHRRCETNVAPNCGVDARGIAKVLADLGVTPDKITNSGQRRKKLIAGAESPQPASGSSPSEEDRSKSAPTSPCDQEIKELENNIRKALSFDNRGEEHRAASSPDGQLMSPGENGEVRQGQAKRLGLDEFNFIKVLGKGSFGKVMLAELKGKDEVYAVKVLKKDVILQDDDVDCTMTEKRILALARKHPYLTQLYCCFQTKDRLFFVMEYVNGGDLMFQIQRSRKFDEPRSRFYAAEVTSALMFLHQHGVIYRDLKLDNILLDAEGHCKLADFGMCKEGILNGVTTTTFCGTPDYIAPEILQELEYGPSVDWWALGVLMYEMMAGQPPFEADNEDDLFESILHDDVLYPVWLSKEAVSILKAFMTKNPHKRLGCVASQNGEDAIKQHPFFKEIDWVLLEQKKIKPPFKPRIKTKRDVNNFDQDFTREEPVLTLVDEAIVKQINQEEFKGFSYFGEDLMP
As to the kind of experiment: In vitro PKCE assay. Format: biochemical. To be noted: 10 nM enzyme, 40 uM peptide substrate, 20 uM ATP, KinaseGlo Plus readout; read-out: PKCε IC50.

Assay [5] addresses KDR kinase (Homo sapiens, UniProt P35968). Kind of assay: KDR AlphaScreen assay. To be noted: KDR IC50 (μM). For orientation: Bead proximity is the source of the signal in Alpha formats.

Chain of KDR kinase (P35968 20-1356): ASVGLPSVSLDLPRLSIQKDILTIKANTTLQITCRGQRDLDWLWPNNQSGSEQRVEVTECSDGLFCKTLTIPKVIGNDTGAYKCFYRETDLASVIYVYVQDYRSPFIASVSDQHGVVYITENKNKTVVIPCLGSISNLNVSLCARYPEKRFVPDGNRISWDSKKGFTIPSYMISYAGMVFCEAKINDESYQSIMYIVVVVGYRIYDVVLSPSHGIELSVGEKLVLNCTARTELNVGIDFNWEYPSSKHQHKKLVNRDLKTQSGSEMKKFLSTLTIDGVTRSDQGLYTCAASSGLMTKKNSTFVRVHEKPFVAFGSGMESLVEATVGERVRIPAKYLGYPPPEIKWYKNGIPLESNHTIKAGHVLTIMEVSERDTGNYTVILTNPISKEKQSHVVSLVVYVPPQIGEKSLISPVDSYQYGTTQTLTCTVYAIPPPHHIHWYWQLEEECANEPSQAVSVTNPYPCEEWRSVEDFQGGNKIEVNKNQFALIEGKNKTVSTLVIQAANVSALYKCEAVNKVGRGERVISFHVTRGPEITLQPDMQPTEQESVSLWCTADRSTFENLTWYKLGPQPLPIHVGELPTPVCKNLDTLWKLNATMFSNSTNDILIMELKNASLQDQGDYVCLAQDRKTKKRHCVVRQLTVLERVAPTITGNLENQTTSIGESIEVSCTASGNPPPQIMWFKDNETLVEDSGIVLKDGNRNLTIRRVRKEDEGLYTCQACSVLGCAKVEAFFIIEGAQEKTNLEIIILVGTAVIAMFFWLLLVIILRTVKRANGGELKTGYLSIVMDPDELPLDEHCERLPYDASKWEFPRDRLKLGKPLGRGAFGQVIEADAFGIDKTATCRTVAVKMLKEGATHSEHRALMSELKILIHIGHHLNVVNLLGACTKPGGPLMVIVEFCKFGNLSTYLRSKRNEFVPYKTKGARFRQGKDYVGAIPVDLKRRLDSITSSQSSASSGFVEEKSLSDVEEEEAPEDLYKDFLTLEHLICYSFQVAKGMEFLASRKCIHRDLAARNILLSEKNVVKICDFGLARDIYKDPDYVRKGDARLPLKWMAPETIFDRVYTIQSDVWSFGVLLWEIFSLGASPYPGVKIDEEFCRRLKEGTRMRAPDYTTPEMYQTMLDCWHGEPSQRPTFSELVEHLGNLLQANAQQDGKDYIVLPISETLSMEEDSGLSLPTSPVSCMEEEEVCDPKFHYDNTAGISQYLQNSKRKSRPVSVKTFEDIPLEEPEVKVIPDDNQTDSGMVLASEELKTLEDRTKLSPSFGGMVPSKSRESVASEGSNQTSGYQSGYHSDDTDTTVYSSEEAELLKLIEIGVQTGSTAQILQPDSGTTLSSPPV
Chain of Pim1 kinase (P11309 whole entry): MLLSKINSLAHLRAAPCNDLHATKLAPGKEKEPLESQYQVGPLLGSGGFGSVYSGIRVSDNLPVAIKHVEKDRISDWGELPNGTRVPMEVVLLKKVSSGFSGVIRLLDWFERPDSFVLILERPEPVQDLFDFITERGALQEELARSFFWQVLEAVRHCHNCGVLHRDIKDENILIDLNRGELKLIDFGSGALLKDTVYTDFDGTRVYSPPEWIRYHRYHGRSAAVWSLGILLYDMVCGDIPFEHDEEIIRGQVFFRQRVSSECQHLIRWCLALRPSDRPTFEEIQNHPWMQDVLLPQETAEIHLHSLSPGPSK
Chain of Pim2 kinase (Q9P1W9 whole entry): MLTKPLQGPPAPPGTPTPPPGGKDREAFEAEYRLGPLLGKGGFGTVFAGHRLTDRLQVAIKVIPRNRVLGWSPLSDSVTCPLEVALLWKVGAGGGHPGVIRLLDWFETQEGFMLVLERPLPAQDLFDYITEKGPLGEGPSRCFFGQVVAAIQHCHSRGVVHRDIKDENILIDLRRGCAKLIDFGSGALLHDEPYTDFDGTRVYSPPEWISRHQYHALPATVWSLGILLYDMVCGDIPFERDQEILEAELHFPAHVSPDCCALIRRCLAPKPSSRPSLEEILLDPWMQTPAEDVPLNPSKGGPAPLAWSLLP

In general, IC50 refers to the midpoint of a concentration-inhibition curve. For `Cc1ccc(NC(=O)c2nccnc2N)c(N2CCCC(N)C2)c1` (centres unmarked) [Example 229, 3-amino-N-[2-(3-aminopiperidin-1-yl)-4-methylphenyl]pyrazine-2-carboxamide], the IC50 is less than 1 µM in assay [1]; 1 to 10 µM in assay [2]; less than 1 µM in assay [3]; 1000 to 10000 nM in assay [4]; greater than 25 µM in assay [5].
In the case of `N#Cc1ccc(N2CCCC(N)C2)c(NC(=O)c2nccnc2N)c1` (centres unmarked) [Example 230, 3-amino-N-[2-(3-aminopiperidin-1-yl)-5-cyanophenyl]pyrazine-2-carboxamide], the IC50 is less than 1 µM in assay [1]; less than 1 µM in assay [2]; less than 1 µM in assay [3]; less than 1000 nM in assay [4]; greater than 25 µM in assay [5].
`Nc1nccnc1C(=O)Nc1cc(C(=O)c2ccccc2)ccc1N1CCCC(N)C1` (centres unmarked) [Example 231, 3-amino-pyrazine-2-carboxylic acid [2-(3-amino-piperidin-1-yl)-5-benzoyl-phenyl]-amide]: the IC50 in assay [1] is 1 to 10 µM; in assay [2], greater than 25 µM; in assay [3] it was 1 to 10 µM; in assay [4], 10000 to 25000 nM; in assay [5], 10 to 25 µM.
`Nc1nccnc1C(=O)Nc1cc(C(=O)c2ccccc2)ccc1N1CCNCC1` [Example 232, 3-amino-pyrazine-2-carboxylic acid (5-benzoyl-2-piperazin-1-yl-phenyl)-amide]: the IC50 in assay [1] is 10 to 25 µM; in assay [2], greater than 25 µM; in assay [3], 10 to 25 µM; in assay [4], 10000 to 25000 nM; in assay [5], 10 to 25 µM.
For the compound `Nc1nccnc1C(=O)Nc1cc(C(=O)c2ccccc2)ccc1N1CCC(N)CC1` [Example 233, 3-amino-pyrazine-2-carboxylic acid [2-(4-amino-piperidin-1-yl)-5-benzoyl-phenyl]-amide], the IC50 in assay [1] was 1 to 10 µM; in assay [2], greater than 25 µM; in assay [3], 1 to 10 µM; in assay [4] it was 1000 to 10000 nM; in assay [5], 1 to 10 µM.
Turning to `NCC1CCCN(c2cnc(=O)[nH]c2NC(=O)c2nc(Cl)c(N)nc2N)C1` (centres unmarked) [Example 236, 3,5-diamino-N-{5-[3-(amino-methyl)piperidin-1-yl]-2-oxo-2,3-dihydropyrimidin-4-yl}-6-chloropyrazine-2-carboxamide], the IC50 in assay [1] is less than 1 µM; in assay [2], less than 1 µM; in assay [3], less than 1 µM; in assay [4] it was greater than 25000 nM; in assay [5] it was 10 to 25 µM.
With `NCCC(=O)N1CCN(c2cnc(=O)[nH]c2NC(=O)c2nccnc2N)CC1` [Example 237, 3-amino-N-{5-[4-(3-amino-propanoyl)piperazin-1-yl]-2-oxo-2,3-dihydropyrimidin-4-yl}-pyrazine-2-carboxamide], the IC50 in assay [1] is less than 1 µM; in assay [2], less than 1 µM; in assay [3], less than 1 µM; in assay [4] it was 1000 to 10000 nM; in assay [5] it was less than 1 µM.
On to `NCCC(=O)N1CCN(c2cnc(=O)[nH]c2NC(=O)c2nc(Cl)c(N)nc2N)CC1` [Example 238, 3,5-diamino-6-chloro-pyrazine-2-carboxylic acid {5-[4-(3-amino-propionyl)-piperazin-1-yl]-2-oxo-2,3-dihydro-pyrimidin-4-yl}-amide], for which the IC50 in assay [1] was less than 1 µM; in assay [2], less than 1 µM; in assay [3], less than 1 µM; in assay [4], greater than 25000 nM; in assay [5] it was less than 1 µM.
As to `Nc1nccnc1C(=O)Nc1cc(C(=O)C2CC2)ccc1N1CCCC(N)C1` (centres unmarked) [Example 243, 3-amino-pyrazine-2-carboxylic acid [2-(3-amino-piperidin-1-yl)-5-cyclopropanecarbonyl-phenyl]-amide], the IC50 is 1 to 10 µM in assay [1]; 10 to 25 µM in assay [2]; 1 to 10 µM in assay [3]; 1000 to 10000 nM in assay [4]; greater than 25 µM in assay [5].
In the case of `Nc1nccnc1C(=O)Nc1cc(C(=O)C2CC2)ccc1N1CCC(N)CC1` [Example 244, 3-amino-pyrazine-2-carboxylic acid [2-(4-amino-piperidin-1-yl)-5-cyclopropanecarbonyl-phenyl]-amide], the IC50 lay within 1 to 10 µM in assay [1]; 10 to 25 µM in assay [2]; 1 to 10 µM in assay [3]; 1000 to 10000 nM in assay [4]; 10 to 25 µM in assay [5].
In the case of `CC(=O)NC1CCCN(c2ccncc2NC(=O)c2nc(Br)cnc2N)C1` (centres unmarked) [Example 304, N-(4-(3-acetamidopiperidin-1-yl)pyridin-3-yl)-3-amino-6-bromopyrazine-2-carboxamide], the IC50 was less than 1 µM in assay [1]; greater than 25 µM in assay [2]; 1 to 10 µM in assay [3]; 1000 to 10000 nM in assay [4]; less than 1 µM in assay [5].
For the compound `COc1cncc(-c2cnc(N)c(C(=O)Nc3cnccc3N3CCNCC3)n2)n1` [Example 360, 5-amino-6′-methoxy-[2,2′]bipyrazinyl-6-carboxylic acid (4-piperazin-1-yl-pyridin-3-yl)-amide], the IC50 in assay [1] is 1 to 10 µM; in assay [2], greater than 25 µM; in assay [3], 1 to 10 µM; in assay [4], 1000 to 10000 nM; in assay [5], less than 1 µM.
For the compound `NC(=O)c1cccc(-c2cnc(N)c(C(=O)Nc3cnccc3N3CCNCC3)n2)c1` [Example 361, 3-amino-6-(3-carbamoyl-phenyl)-pyrazine-2-carboxylic acid (4-piperazin-1-yl-pyridin-3-yl)-amide], the IC50 in assay [1] was less than 1 µM; in assay [2], less than 1 µM; in assay [3], less than 1 µM; in assay [4], less than 1000 nM; in assay [5], less than 1 µM.
In the case of `COc1cncc(-c2cnc(N)c(C(=O)Nc3cnccc3N3CCC(N)CC3)n2)n1` [Example 366, 5-amino-6′-methoxy-[2,2′]bi-pyrazinyl-6-carboxylic acid (4-amino-3,4,5,6-tetrahydro-2H-[1,4′]bipyridinyl-3′-yl)-amide], the IC50 in assay [1] is less than 1 µM; in assay [2], 1 to 10 µM; in assay [3] it was less than 1 µM; in assay [4], less than 1000 nM; in assay [5], less than 1 µM.
On to `NC(=O)c1cccc(-c2cnc(N)c(C(=O)Nc3cnccc3N3CCCC(N)C3)n2)c1` (centres unmarked) [Example 369, 3-amino-6-(3-carbamoyl-phenyl)-pyrazine-2-carboxylic acid (3-amino-3,4,5,6-tetra-hydro-2H-[1,4′]bipyridinyl-3′-yl)-amide], for which the IC50 was less than 1 µM in assay [1]; less than 1 µM in assay [2]; less than 1 µM in assay [3]; less than 1000 nM in assay [4]; less than 1 µM in assay [5].
As for `Nc1ncc(-c2ccccc2F)nc1C(=O)Nc1ccccc1N1CCC(N)CC1` [Example 377, 3-amino-6-(2-fluoro-phenyl)-pyrazine-2-carboxylic acid [2-(4-amino-piperidin-1-yl)-phenyl]-amide], the IC50 in assay [1] was less than 1 µM; in assay [2], less than 1 µM; in assay [3] it was less than 1 µM; in assay [4], less than 1000 nM; in assay [5], 1 to 10 µM.
Take `Nc1ncc(-c2ccoc2)nc1C(=O)Nc1ccccc1N1CCC(N)CC1` [Example 379, 3-amino-6-furan-3-yl-pyrazine-2-carboxylic acid [2-(4-amino-piperidin-1-yl)-phenyl]-amide]: the IC50 was less than 1 µM in assay [1]; 1 to 10 µM in assay [2]; less than 1 µM in assay [3]; less than 1000 nM in assay [4]; 1 to 10 µM in assay [5].
For `NC(=O)c1cccc(-c2cnc(N)c(C(=O)Nc3ccccc3N3CCC(N)CC3)n2)c1` [Example 380, 3-amino-6-(3-carbamoyl-phenyl)-pyrazine-2-carboxylic acid [2-(4-amino-piperidin-1-yl)-phenyl]-amide], the IC50 in assay [1] is less than 1 µM; in assay [2], 1 to 10 µM; in assay [3], less than 1 µM; in assay [4], less than 1000 nM; in assay [5], less than 1 µM.
With `COc1ccc(-c2cnc(N)c(C(=O)Nc3ccccc3N3CCC(N)CC3)n2)cc1` [Example 381, 3-amino-6-(4-methoxy-phenyl)-pyrazine-2-carboxylic acid [2-(4-amino-piperidin-1-yl)-phenyl]-amide], the IC50 in assay [1] is less than 1 µM; in assay [2], less than 1 µM; in assay [3], less than 1 µM; in assay [4], less than 1000 nM; in assay [5], 1 to 10 µM.
